Test results taken from patent US4859779A, “Dopamine-β-hydroxylase inhibitors” (SmithKline Beckman Corporation, priority 1989, dated 1989).
Where a name gives a salt, the structure may show the parent alone.

Columns and labels:
[1] = target: T1, DBH (Homo sapiens, UniProt P09172); settings: literature reports; cited from earlier work
T1 sequence (P09172 1-617): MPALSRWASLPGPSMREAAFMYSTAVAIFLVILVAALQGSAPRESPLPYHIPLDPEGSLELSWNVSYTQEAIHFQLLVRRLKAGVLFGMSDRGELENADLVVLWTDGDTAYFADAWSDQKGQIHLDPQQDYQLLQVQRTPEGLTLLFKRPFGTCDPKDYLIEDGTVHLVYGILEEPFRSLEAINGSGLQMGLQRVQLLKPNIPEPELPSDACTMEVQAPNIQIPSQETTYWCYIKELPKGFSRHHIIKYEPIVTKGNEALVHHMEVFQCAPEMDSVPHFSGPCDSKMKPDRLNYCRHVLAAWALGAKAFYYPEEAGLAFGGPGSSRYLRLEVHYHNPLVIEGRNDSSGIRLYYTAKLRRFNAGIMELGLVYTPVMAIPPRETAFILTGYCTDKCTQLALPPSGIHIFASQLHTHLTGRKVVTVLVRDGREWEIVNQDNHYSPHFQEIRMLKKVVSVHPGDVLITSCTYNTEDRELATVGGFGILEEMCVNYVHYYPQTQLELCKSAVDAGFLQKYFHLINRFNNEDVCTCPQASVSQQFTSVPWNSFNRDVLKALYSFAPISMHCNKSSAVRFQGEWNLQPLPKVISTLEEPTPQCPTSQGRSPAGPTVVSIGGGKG

[2] = Ehrreich et al., 1976; cited from earlier work
[3] = tested on: spontaneously hypertensive rats; assay: mean arterial blood pressure in spontaneously hypertensive rats (indwelling tail artery cannulae); type: in vivo, rat; settings: 50 mg/kg intraperitoneally
Description: Further, spontaneously hypertensive rats were treated with a suspension or solution of N-(2-aminoethyl)-1-(3,5-difluorobenzyl)-2-mercaptoimidazole-5-carboxamide,formate at a dose of 50 mg/kg intraperitoneally, and mean arterial blood pressure was monitored for 260 minutes using indwelling cannulae in the tail arteries.

Structure (SMILES)	DBH inhibition (in words) [1]	also measured
O=C(O)c1ccc(CCC(Br)CBr)cn1 (stereo not drawn) [5-(3,4-dibromobutyl)picolinic acid]	DBH inhibitors	–
O=C(O)c1ccc(CCCCCl)cn1 [5-(4-chlorobutyl) picolinic acid]	inhibit DBH	–
CN(C)C(=S)SCc1ccc(C(=O)O)nc1 [5-(dimethyldithiocarbamoylmethyl)picolinic acid]	DBH inhibitors	–
NOCc1ccccc1 [Benzyloxyamine]	apparently act as competitive inhibitors	–
CCCCc1ccc(C(N)=O)nc1 [Bupicomide, 5-(n-butyl)picolinamine]	DBH inhibitor	antihypertensive activity [2]: antihypertensive activity
NCCNC(=O)c1cnc(S)n1Cc1cc(F)cc(F)c1 [N-(2-Aminoethyl)-1-(3,5-difluorobenzyl)-2-mercaptoimidazole-5-carboxamide,formate]	–	blood pressure reduction compared to vehicle-treated controls ([3]; suspension or solution, mean arterial blood pressure, within 30 minutes following treatment): significant blood pressure reductions; time to significant blood pressure reduction ([3]; versus vehicle-treated controls): ≤ 30 min
NNCc1ccccc1 [benzylhydrazine]	apparently act as competitive inhibitors	–
